Test results reported in patent publication US10196668B2, “Reagents and methods for screening MPS I, II, IIIA, IIIB, IVA, VI, and VII” (University of Washington through its Center for …, priority 2013, dated 2019).
Values joined by “and” are separate entries in the source; they are usually repeats but may differ in a detail not shown here. Equal values may be shown once. Where a name gives a salt, the structure may show the parent alone. Blank lines part the entries; values can stand above or below the molecule they belong to.

Legend:
Type in all cases: biochemical
arylsulfatase B (ASB) = molecular target: T1, arylsulfatase B (ASB) (Homo sapiens, UniProt P15848); assay: ASB (MPS-VI) assay with beta-NGA and Z-PUG-NAc, UHPLC-MS/MS
T1 construct: from tissue; host or cells: dried blood spot (3 mm punch)
Experimental: Having established the action of human hexosaminidase A on the ASB substrate, the ASB assay was developed, using the same approach developed for GALNS, namely adding beta-NGA and Z-PUG-NAc. The experiments were carried out as for the GALNS assays (see Example 10) but with 1 mM ASB substrate replacing the GALNS substrate.
(§1) Experiment 1. A 3 mm punch of a dried blood spot from a random newborn is incubated with 0.03 mL of assay cocktail consisting of 1 mM GALNS substrate in 50 mM ammonium formate pH 4.0 containing 7.5 mM barium acetate, 5.0 mM cerium acetate, 1 mM Z-PUG-NAc, and 0.01 mg of bacterial beta-N-acetylgalactosaminidase. The mixture also contains 0.005 mM internal standard. After 16 hrs at 37° C. with shaking, the mixture is quenched with 0.12 mL of acetonitrile and the sample plate is centrifuged to pellet the precipitate. Supernatant (0.12 mL) is transferred to a new plate, and 0.12 mL of water is added. The plate is placed on the autosampler of the UHPLC-MS/MS instrument (Waters Xevo TQ MS/MS with a Waters Acquity UHPLC system). A portion of the sample (0.01 mL) is injected, and the GALNS product (substrate minus sulfate), the internal standard, and the aglycones derived from the GALNS product and internal standard are quantified by multiple reaction monitoring (MS/MS). Note the internal standard added, like the GALNS product, is converted to its aglycone by the addition of bacterial beta-N-acetylgalactosaminidase.

[1] = molecular target: T2, Recombinant human hexosaminidase A (Homo sapiens, UniProt P06865); assay: Action of hexosaminidase A on ASB substrate, UHPLC-MS/MS; conditions: 1 mM ASB substrate, 100 mM ammonium formate pH 5.6, 5 hrs at 37° C.
T2 sequence (P06865 89-529): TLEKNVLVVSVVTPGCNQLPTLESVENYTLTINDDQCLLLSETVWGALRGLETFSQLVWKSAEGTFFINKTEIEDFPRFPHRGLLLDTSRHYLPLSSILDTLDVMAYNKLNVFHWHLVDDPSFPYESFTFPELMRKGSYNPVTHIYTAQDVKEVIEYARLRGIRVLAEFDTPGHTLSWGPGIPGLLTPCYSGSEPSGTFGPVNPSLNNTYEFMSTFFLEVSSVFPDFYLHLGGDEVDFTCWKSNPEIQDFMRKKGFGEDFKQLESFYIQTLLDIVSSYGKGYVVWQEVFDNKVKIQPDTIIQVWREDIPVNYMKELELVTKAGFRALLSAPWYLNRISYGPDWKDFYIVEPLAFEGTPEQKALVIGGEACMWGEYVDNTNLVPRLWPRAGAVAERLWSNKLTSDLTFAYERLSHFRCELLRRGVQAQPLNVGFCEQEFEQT
T2 sequence (P07686 122-556 partner): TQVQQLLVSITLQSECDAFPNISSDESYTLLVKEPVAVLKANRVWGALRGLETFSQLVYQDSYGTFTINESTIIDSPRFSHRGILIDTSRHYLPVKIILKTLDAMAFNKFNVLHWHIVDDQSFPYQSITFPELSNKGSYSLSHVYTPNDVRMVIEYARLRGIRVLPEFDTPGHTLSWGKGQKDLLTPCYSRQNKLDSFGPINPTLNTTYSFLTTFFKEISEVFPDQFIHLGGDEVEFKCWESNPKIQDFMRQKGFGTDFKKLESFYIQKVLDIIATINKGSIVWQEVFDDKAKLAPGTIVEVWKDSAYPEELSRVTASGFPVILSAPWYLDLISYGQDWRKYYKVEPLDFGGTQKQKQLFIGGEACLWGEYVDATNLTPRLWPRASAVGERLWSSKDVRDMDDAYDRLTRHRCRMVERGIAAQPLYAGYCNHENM
Experimental: The mixture includes 1 mM ASB substrate in 100 mM ammonium formate buffer, pH 5.6 containing the indicated amount of hexosaminidase. After incubation for 5 hrs at 37° C., the mixture is analyzed by UHPLC-MS/MS. The aglycone signal is not due to contamination of the substrate with aglycone because no aglycone is seen when hexosaminidase A is omitted. The aglycone is not the result of cleavage of the ASB in the electrospray ionization source of the mass spectrometer because the amount of aglycone increases with increasing hexosaminidase A (FIG. 1), and the UHPLC retention time of the aglycone matches that of an authentic aglycone, and this is different than the retention time of the ASB substrate. Thus, hexosaminidase A acts on the ASB substrate to produce algycone. Because hexosaminidase A acts on ASB substrate to produce algycone, this enzyme cannot be used in a coupled assay of ASB, and furthermore it is important to inhibit hexosaminidase A so as not to generate aglycone directly from the ASB substrate.

[2] = molecular target: T3, N-acetylgalactosamine-4-sulfate-sulfatase (MPS-VI enzyme) (Homo sapiens, UniProt P15848); assay: MPS-VI enzyme assay with dried blood spot punch, tandem mass spectrometry
T3 construct: from tissue; host or cells: dried blood spot (3 mm punch)
Experimental: The original and alternative MPS-VI substrates were compared in side-by-side enzyme assays as follows: 1 mM substrate, 10 uM internal standard in 30 uL of buffer (100 mM ammonium formate, pH 4.0, 7.5 mM barium(II) acetate, 5.0 mM cerium(III) acetate). A 3 mm punch of a dried blood spot was added, and the mixtures were incubated with shaking for 16 hours at 37 deg C. The reactions were quenched by addition of an aqueous suspension (1:1) of DEAE cellulose (Whatmann DE52) (100 uL), followed by addition of 400 uL of ethyl acetate. The mixture was mixed by up and down pipetting a few times and then centrifuged (10 min at 3000 rpm) to separate the liquid layers and pellet the DE52. A 300 uL portion of the upper ethyl acetate layer was transferred to a new well, and solvent was removed by evaporation with a stream of oil-free air. The residue was taken up in 100 uL of methanol/5 mM aqueous ammonium formate (80/20, v/v) and infused into the tandem mass spectrometer. The barium and cerium salts are present to precipitate free sulfate and phosphate present in the dried blood spot since these anions cause production inhibition of the MPS-VI enzyme. The DE52 is added to trap remaining substrate so only product and internal standard (which are charge neutral) are extracted into ethyl acetate. […]

human hexosaminidase A = molecular target: T4, human hexosaminidase A (Homo sapiens, UniProt P06865+P07686); assay: Block of endogenous hexosaminidase A in dried blood spots in the GALNS assay; conditions: 1 mM Z-PUG-NAc in assay cocktail with dried blood spot
T4 construct: from tissue; host or cells: dried blood spot from a random newborn
T4 sequence (P06865 89-529): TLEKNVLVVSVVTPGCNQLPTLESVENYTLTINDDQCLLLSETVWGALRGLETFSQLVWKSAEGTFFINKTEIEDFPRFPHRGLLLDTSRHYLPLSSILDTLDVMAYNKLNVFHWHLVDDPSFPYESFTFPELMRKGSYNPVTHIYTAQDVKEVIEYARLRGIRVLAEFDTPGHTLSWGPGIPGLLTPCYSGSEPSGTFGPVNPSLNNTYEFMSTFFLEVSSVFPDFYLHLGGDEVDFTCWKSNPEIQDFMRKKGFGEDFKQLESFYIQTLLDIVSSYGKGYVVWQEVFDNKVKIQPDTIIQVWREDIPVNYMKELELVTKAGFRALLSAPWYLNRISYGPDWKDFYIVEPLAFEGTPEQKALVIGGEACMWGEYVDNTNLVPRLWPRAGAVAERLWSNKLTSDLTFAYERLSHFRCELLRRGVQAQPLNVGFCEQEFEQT
T4 sequence (P07686 122-556): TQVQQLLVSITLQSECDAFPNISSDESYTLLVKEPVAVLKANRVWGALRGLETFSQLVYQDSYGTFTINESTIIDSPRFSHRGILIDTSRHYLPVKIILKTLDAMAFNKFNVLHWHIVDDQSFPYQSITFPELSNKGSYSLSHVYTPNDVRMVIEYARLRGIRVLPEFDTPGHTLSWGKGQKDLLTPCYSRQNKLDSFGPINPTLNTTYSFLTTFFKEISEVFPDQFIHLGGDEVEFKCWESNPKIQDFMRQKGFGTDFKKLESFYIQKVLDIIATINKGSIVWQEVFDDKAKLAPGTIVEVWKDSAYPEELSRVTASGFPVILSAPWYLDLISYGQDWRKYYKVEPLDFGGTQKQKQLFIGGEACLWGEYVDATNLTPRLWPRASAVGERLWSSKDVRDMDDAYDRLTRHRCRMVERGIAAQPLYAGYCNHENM
Experimental: as §1

[3] = molecular target: T5, iduronic acid 2-sulfatase (Homo sapiens, UniProt P22304); assay: Sulfatase assay for MPS-II with second enzyme alpha-L-iduronidase; conditions: with iduronidase versus without
T5 construct: from tissue; host or cells: dried blood spot (3 mm punch)
T5 sequence (P22304 34-550): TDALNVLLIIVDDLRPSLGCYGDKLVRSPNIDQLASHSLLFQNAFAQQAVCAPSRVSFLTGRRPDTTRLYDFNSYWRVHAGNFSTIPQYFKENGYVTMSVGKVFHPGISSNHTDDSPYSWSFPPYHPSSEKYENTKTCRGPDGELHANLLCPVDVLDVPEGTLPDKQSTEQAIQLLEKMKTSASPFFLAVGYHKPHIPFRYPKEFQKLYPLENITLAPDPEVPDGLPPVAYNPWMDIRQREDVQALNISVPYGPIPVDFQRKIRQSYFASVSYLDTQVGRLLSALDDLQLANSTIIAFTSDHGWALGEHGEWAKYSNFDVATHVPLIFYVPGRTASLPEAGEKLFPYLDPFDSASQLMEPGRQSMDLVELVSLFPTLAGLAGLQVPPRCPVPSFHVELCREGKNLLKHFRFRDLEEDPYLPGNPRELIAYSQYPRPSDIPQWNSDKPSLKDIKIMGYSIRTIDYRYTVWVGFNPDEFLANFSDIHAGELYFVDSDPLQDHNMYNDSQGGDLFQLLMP
Experimental: In the assay, a second enzyme, alpha-L-iduronidase (a glycohydrolase) is added to the assay cocktail, which converts Initial MPS-II Product to Final MPS-II Product by removing the iduronic acid residue leaving the aglycone. The iduronidase can be present in the assay cocktail that is incubated with the dried blood spot, or it can be added after the first incubation with the dried blood spot followed by a second incubation period. The amount of iduronidase added is sufficient to convert all Initial MPS-II Product to Final MPS-II Product. The assay cocktail also contains Initial MPS-II Internal Standard (same as Initial MPS-II Product but, for example, with 5 deuteriums in the benzoyl group), which is converted by iduronidase to Final MPS-II Internal Standard. Both Final MPS-II Product and Final MPS-II Internal Standard are detected by tandem mass spectrometry, which enables the amount of Final MPS-II Product to be quantified. […] The analytes are detected by multiple reaction monitoring.
Thus the assay sensitivity has been improved by about 100-fold. […] With the assay of the invention, this desulfation is of no concern because the product being detected is the aglycone (Final MPS-II Product).

[4] = Expt. 1: 3 mm dried blood spot punch, 1 mM Z-PUG-NAc, 0.01 mg beta-NGA
[5] = Expt. 2: 3 mm filter paper punch (no blood), 1 mM Z-PUG-NAc, 0.01 mg of bacterial enzyme
[6] = Expt. 3: 3 mm dried blood spot punch, 1 mM Z-PUG-NAc, no beta-NGA
[7] = Expt. 4: 3 mm filter paper punch (no blood), nothing added

T1 sequence (P15848 37-533): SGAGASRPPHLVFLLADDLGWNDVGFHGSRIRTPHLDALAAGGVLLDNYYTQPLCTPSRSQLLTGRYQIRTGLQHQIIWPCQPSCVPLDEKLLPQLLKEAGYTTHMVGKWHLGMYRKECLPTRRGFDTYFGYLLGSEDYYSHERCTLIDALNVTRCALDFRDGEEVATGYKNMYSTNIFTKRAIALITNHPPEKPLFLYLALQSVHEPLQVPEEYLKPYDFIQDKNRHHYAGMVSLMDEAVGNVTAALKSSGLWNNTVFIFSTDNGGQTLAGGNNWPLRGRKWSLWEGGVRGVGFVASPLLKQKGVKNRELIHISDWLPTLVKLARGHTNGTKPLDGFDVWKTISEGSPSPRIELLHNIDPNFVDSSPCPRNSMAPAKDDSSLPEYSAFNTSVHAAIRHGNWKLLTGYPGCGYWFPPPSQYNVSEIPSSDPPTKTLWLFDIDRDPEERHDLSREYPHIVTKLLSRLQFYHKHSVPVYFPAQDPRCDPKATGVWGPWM
T3 sequence (P15848 37-533): as above

Molecule: CCCCC(=O)N(CCCCCNC(=O)c1ccccc1)CCC(=O)Nc1ccc(OC2OC(CO)C(OS(=O)(=O)O)C(O)C2NC(C)=O)cc1 [Alternative MPS-VI, Sodium (2R,3R,4R,5R,6S)-5-acetamido-6(4(3-(N (5-benzamidopentyl)-pentanamido)propanamido)phenoxy)-4-hydroxy-2-(hydroxymethyl)tetrahydro-2H-pyran-3-yl sulfate]
Enzymatic Activity ([2]; 1 mM substrate, 3 mm dried blood spot punch, pH 4.0, 16 hours at 37 deg C): 1.5 umole/hr/L blood
blood-no blood assay ratio ([2]; activity with dried blood spot punch to that with blood-free punch): 77.9

B1: iduronidase: human alpha-L-iduronidase (a glycohydrolase) obtained by overexpression in mammalian cells, second enzyme (protein, UniProt P35475 28-653, looked up)
Alpha-L-iduronidase: APHLVHVDAARALWPLRRFWRSTGFCPPLPHSQADQYVLSWDQQLNLAYVGAVPHRGIKQVRTHWLLELVTTRGSTGRGLSYNFTHLDGYLDLLRENQLLPGFELMGSASGHFTDFEDKQQVFEWKDLVSSLARRYIGRYGLAHVSKWNFETWNEPDHHDFDNVSMTMQGFLNYYDACSEGLRAASPALRLGGPGDSFHTPPRSPLSWGLLRHCHDGTNFFTGEAGVRLDYISLHRKGARSSISILEQEKVVAQQIRQLFPKFADTPIYNDEADPLVGWSLPQPWRADVTYAAMVVKVIAQHQNLLLANTTSAFPYALLSNDNAFLSYHPHPFAQRTLTARFQVNNTRPPHVQLLRKPVLTAMGLLALLDEEQLWAEVSQAGTVLDSNHTVGVLASAHRPQGPADAWRAAVLIYASDDTRAHPNRSVAVTLRLRGVPPGPGLVYVTRYLDNGLCSPDGEWRRLGRPVFPTAEQFRRMRAAEDPVAAAPRPLPAGGRLTLRPALRLPSLLLVHVCARPEKPPGQVTRLRALPLTQGQLVLVWSDEHVGSKCLWTYEIQFSQDGKAYTPVSRKPSTFNLFVFSPDTGAVSGSYRVRALDYWARPGPFSDPVPYLEVPVPRGPPSPGNP
improvement of assay sensitivity by second enzyme [3]: about 100 fold

More lines, main results first:

ASB product (substrate without sulfate) peak area (arylsulfatase B (ASB); [4]): 154,000
aglycone peak area (product without sugar) (arylsulfatase B (ASB); [4]): 1,570,000
ASB product (substrate without sulfate) peak area (arylsulfatase B (ASB); [5]): 404
aglycone peak area (product without sugar) (arylsulfatase B (ASB); [5]): 58,300
ASB product (substrate without sulfate) peak area (arylsulfatase B (ASB); [6]): 371,000
aglycone peak area (product without sugar) (arylsulfatase B (ASB); [6]): 39,900
ASB product (substrate without sulfate) peak area (arylsulfatase B (ASB); [7]): 3,340 and 3,430
aglycone peak area (product without sugar) (arylsulfatase B (ASB); [7]): 33,800
Molecule: CCCCC(=O)N(CCCCCNC(=O)c1ccccc1)CCC(=O)Nc1ccc(OC2OC(CO)C(OS(=O)(=O)O)C(O)C2NC(C)=O)cc1 (stereo not shown) [ASB substrate]
aglycone release from substrate by hexosaminidase A [1]: acts on the ASB substrate to liberate aglycone

inhibition of hexosaminidase A (human hexosaminidase A): fully block hexosaminidase A
Molecule: CC(=O)N[C@H]1/C(=N/OC(=O)Nc2ccccc2)O[C@H](CO)[C@@H](O)[C@@H]1O [Z-PUG-NAc, (Z)—O-(2-acetamido-2-deoxy-D-glucopyranosylidene)-amino N-phenylcarbamate]
